Measured values as given in the NIST ThermoML archive (doi:10.1021/acs.jced.8b00524).

Assay: xn = mol fraction of the nth substance listed
Details: 100 kPa, Liquid; for viscosity: Concentric cylinders viscometry; for mass density: Vibrating tube method

CCCCCCCCCCO [decan-1-ol] + CCCCOC(C)=O
Details | mass density [kg/m3] | viscosity [mPa·s]
293.15 K, x2 = 0 | 829.5 | 14.42
293.15 K, x2 = 0.0809 | 832 | 12.8
293.15 K, x2 = 0.1599 | 834.6 | 11.41
293.15 K, x2 = 0.2401 | 837.6 | 10.07
293.15 K, x2 = 0.3499 | 842 | 8.41
293.15 K, x2 = 0.4401 | 846 | 7.18
293.15 K, x2 = 0.5598 | 851.9 | 5.67
293.15 K, x2 = 0.6499 | 856.8 | 4.62
293.15 K, x2 = 0.7401 | 862.3 | 3.6
293.15 K, x2 = 0.8499 | 869.6 | 2.38
293.15 K, x2 = 0.9399 | 876.2 | 1.38
298.15 K, x2 = 0 | 826.1 | 11.8
298.15 K, x2 = 0.0809 | 828.4 | 10.44
298.15 K, x2 = 0.1599 | 830.9 | 9.29
298.15 K, x2 = 0.2401 | 833.7 | 8.2
298.15 K, x2 = 0.3499 | 838 | 6.86
298.15 K, x2 = 0.4401 | 841.8 | 5.87
298.15 K, x2 = 0.5598 | 847.5 | 4.61
298.15 K, x2 = 0.6499 | 852.3 | 3.75
298.15 K, x2 = 0.7401 | 857.5 | 2.94
298.15 K, x2 = 0.8499 | 864.7 | 1.97
298.15 K, x2 = 0.9399 | 871.1 | 1.19
303.15 K, x2 = 0 | 822.7 | 9.76
303.15 K, x2 = 0.0809 | 824.8 | 8.61
303.15 K, x2 = 0.1599 | 827.1 | 7.62
303.15 K, x2 = 0.2401 | 829.7 | 6.71
303.15 K, x2 = 0.3499 | 833.8 | 5.59
303.15 K, x2 = 0.4401 | 837.5 | 4.78
303.15 K, x2 = 0.5598 | 843 | 3.75
303.15 K, x2 = 0.6499 | 847.6 | 3.06
303.15 K, x2 = 0.7401 | 852.7 | 2.4
303.15 K, x2 = 0.8499 | 859.6 | 1.64
303.15 K, x2 = 0.9399 | 866 | 1.04
308.15 K, x2 = 0 | 819.3 | 8.14
308.15 K, x2 = 0.0809 | 821.2 | 7.15
308.15 K, x2 = 0.1599 | 823.4 | 6.31
308.15 K, x2 = 0.2401 | 825.8 | 5.54
308.15 K, x2 = 0.3499 | 829.6 | 4.61
308.15 K, x2 = 0.4401 | 833.1 | 3.93
308.15 K, x2 = 0.5598 | 838.5 | 3.11
308.15 K, x2 = 0.6499 | 842.9 | 2.54
308.15 K, x2 = 0.7401 | 847.9 | 2.02
308.15 K, x2 = 0.8499 | 854.6 | 1.4
308.15 K, x2 = 0.9399 | 860.8 | 0.9
313.15 K, x2 = 0 | 815.8 | 6.84
313.15 K, x2 = 0.0809 | 817.3 | 5.99
313.15 K, x2 = 0.1599 | 819.2 | 5.27
313.15 K, x2 = 0.2401 | 821.4 | 4.62
313.15 K, x2 = 0.3499 | 824.9 | 3.83
313.15 K, x2 = 0.4401 | 828.2 | 3.28
313.15 K, x2 = 0.5598 | 833.2 | 2.59
313.15 K, x2 = 0.6499 | 837.5 | 2.15
313.15 K, x2 = 0.7401 | 842.4 | 1.71
313.15 K, x2 = 0.8499 | 849.1 | 1.22
313.15 K, x2 = 0.9399 | 855.3 | 0.81
318.15 K, x2 = 0 | 812.4 | 5.8
318.15 K, x2 = 0.0809 | 813.7 | 5.06
318.15 K, x2 = 0.1599 | 815.3 | 4.45
318.15 K, x2 = 0.2401 | 817.2 | 3.89
318.15 K, x2 = 0.3499 | 820.3 | 3.22
318.15 K, x2 = 0.4401 | 823.4 | 2.75
318.15 K, x2 = 0.5598 | 828.2 | 2.18
318.15 K, x2 = 0.6499 | 832.4 | 1.8
318.15 K, x2 = 0.7401 | 837.2 | 1.45
318.15 K, x2 = 0.8499 | 843.9 | 1.05
318.15 K, x2 = 0.9399 | 850.2 | 0.73
323.15 K, x2 = 0 | 808.9 | 4.96
323.15 K, x2 = 0.0809 | 809.9 | 4.31
323.15 K, x2 = 0.1599 | 811.3 | 3.79
323.15 K, x2 = 0.2401 | 813 | 3.3
323.15 K, x2 = 0.3499 | 815.9 | 2.72
323.15 K, x2 = 0.4401 | 818.8 | 2.32
323.15 K, x2 = 0.5598 | 823.4 | 1.84
323.15 K, x2 = 0.6499 | 827.3 | 1.53
323.15 K, x2 = 0.7401 | 832.1 | 1.25
323.15 K, x2 = 0.8499 | 838.7 | 0.92
323.15 K, x2 = 0.9399 | 844.9 | 0.66
